Patent US9163256B2, “Mutant receptors and their use in a nuclear receptor-based inducible gene expression system” (priority 2004, dated 2015)

Assays:
Experiment in all cases: GAL4-driven luciferase reporter assay in NIH3T3 cells
Format in all cases: cell-based
CfEcR-DEF mutant F48K = CfEcR-DEF mutant F48K (Choristoneura fumiferana, UniProt O77255, F331K); details: for Emax: NIH3T3, 40 h, read-out: Rel Max FI
Procedure: (§1) This construct was prepared in the same way as in switch 1.1 above except wild-type CfEcR-DEF was replaced with mutant CfEcR-DEF comprising a ligand binding domain comprising a substitution mutation selected from Table 1 below.
(§2) DNAs were transfected into mouse NIH3T3 cells (ATCC) as follows. Standard methods for culture and maintenance of the cells were followed. Cells were harvested and plated 96-well plates at 2,500 cells per well, in 50 μL of growth medium containing 10% fetal bovine serum (FBS). Twenty-four hours later, the cells were treated with 35 μL of serum-free growth medium containing either dimethylsulfoxide (DMSO; control) or a DMSO solution of ligand. The cells were then transfected using Superfect (Qiagen Inc.) transfection reagent. For each well, 0.625 μL of Superfect was mixed with 14.2 μL of serum-free growth medium. 0.16 μg of reporter construct and 0.04 μg of each receptor construct were added to the transfection reagent mix. The contents of the transfection mix were mixed in a vortex mixer and let stand at room temperature for 30 minutes. At the end of incubation, 15 μL of transfection mix was added to the cells. The cells were maintained at 37° C. and 5% CO2 for 48 hours in 5% FBS.
(§3) Reporter Assays: Cells were harvested 40 hours after adding ligands. 125 μL of passive lysis buffer (part of Dual-Luciferase reporter assay system from Promega Corporation) were added to each well of the […] plate. The plates were placed on a rotary shaker for 15 minutes. Twenty μL of lysate were assayed. Luciferase activity was measured using Dual-Luciferase reporter assay system from Promega Corporation following the manufacturer's instructions. Fold induction (FI) activities were calculated by dividing relative light units (“RLU”) in ligand treated cells with RLU in DMSO treated cells (untreated control).

CfEcR-DEF mutant F48R = CfEcR-DEF mutant F48R (Choristoneura fumiferana, UniProt O77255, F331R); details: for Emax: NIH3T3, 40 h, read-out: Rel Max FI
Procedure: as §1, §2, §3

CfEcR-DEF mutant I51M = CfEcR-DEF mutant I51M (Choristoneura fumiferana, UniProt O77255, I334M); details: for Emax: NIH3T3, 40 h, read-out: Rel Max FI
Procedure: as §1, §2, §3

CfEcR-DEF mutant L132E = CfEcR-DEF mutant L132E (Choristoneura fumiferana, UniProt O77255, L415E); details: for Emax: NIH3T3, 40 h, read-out: Rel Max FI
Procedure: as §1, §2, §3

CfEcR-DEF mutant L223K = CfEcR-DEF mutant L223K (Choristoneura fumiferana, UniProt O77255, L506K); details: for Emax: NIH3T3, 40 h, read-out: Rel Max FI
Procedure: as §1, §2, §3

CfEcR-DEF mutant L223R = CfEcR-DEF mutant L223R (Choristoneura fumiferana, UniProt O77255, L506R); details: for Emax: NIH3T3, 40 h, read-out: Rel Max FI
Procedure: as §1, §2, §3

CfEcR-DEF mutant L223Y = CfEcR-DEF mutant L223Y (Choristoneura fumiferana, UniProt O77255, L506Y); details: for Emax: NIH3T3, 40 h, read-out: Rel Max FI
Procedure: as §1, §2, §3

CfEcR-DEF mutant L234R = CfEcR-DEF mutant L234R (Choristoneura fumiferana, UniProt O77255, L517R); details: for Emax: NIH3T3, 40 h, read-out: Rel Max FI
Procedure: as §1, §2, §3

CfEcR-DEF mutant L234W = CfEcR-DEF mutant L234W (Choristoneura fumiferana, UniProt O77255, L517W); details: for Emax: NIH3T3, 40 h, read-out: Rel Max FI
Procedure: as §1, §2, §3

CfEcR-DEF mutant M125G = CfEcR-DEF mutant M125G (Choristoneura fumiferana, UniProt O77255, M408G)
Procedure: as §1, §2, §3

CfEcR-DEF mutant M125I = CfEcR-DEF mutant M125I (Choristoneura fumiferana, UniProt O77255, M408I); details: for Emax: NIH3T3, 40 h, read-out: Rel Max FI
Procedure: as §1, §2, §3

CfEcR-DEF mutant M125N = CfEcR-DEF mutant M125N (Choristoneura fumiferana, UniProt O77255, M408N)
Procedure: as §1, §2, §3

CfEcR-DEF mutant M125S = CfEcR-DEF mutant M125S (Choristoneura fumiferana, UniProt O77255, M408S)
Procedure: as §1, §2, §3

CfEcR-DEF mutant M125V = CfEcR-DEF mutant M125V (Choristoneura fumiferana, UniProt O77255, M408V); details: for Emax: NIH3T3, 40 h, read-out: Rel Max FI
Procedure: as §1, §2, §3

CfEcR-DEF mutant M219A = CfEcR-DEF mutant M219A (Choristoneura fumiferana, UniProt O77255, M502A); details: for Emax: NIH3T3, 40 h, read-out: Rel Max FI
Procedure: as §1, §2, §3

CfEcR-DEF mutant M219K = CfEcR-DEF mutant M219K (Choristoneura fumiferana, UniProt O77255, M502K); details: for Emax: NIH3T3, 40 h, read-out: Rel Max FI
Procedure: as §1, §2, §3

CfEcR-DEF mutant M219W = CfEcR-DEF mutant M219W (Choristoneura fumiferana, UniProt O77255, M502W); details: for Emax: NIH3T3, 40 h, read-out: Rel Max FI
Procedure: as §1, §2, §3

CfEcR-DEF mutant M219Y = CfEcR-DEF mutant M219Y (Choristoneura fumiferana, UniProt O77255, M502Y); details: for Emax: NIH3T3, 40 h, read-out: Rel Max FI
Procedure: as §1, §2, §3

CfEcR-DEF mutant T52G = CfEcR-DEF mutant T52G (Choristoneura fumiferana, UniProt O77255, T335G); details: for Emax: NIH3T3, 40 h, read-out: Rel Max FI
Procedure: as §1, §2, §3

CfEcR-DEF mutant T52M = CfEcR-DEF mutant T52M (Choristoneura fumiferana, UniProt O77255, T335M); details: for Emax: NIH3T3, 40 h, read-out: Rel MaxFI
Procedure: as §1, §2, §3

CfEcR-DEF mutant T52Q = CfEcR-DEF mutant T52Q (Choristoneura fumiferana, UniProt O77255, T335Q); details: for Emax: NIH3T3, 40 h, read-out: Rel Max FI
Procedure: as §1, §2, §3

CfEcR-DEF mutant T52R = CfEcR-DEF mutant T52R (Choristoneura fumiferana, UniProt O77255, T335R); details: for Emax: NIH3T3, 40 h, read-out: Rel Max FI
Procedure: as §1, §2, §3

CfEcR-DEF mutant T52W = CfEcR-DEF mutant T52W (Choristoneura fumiferana, UniProt O77255, T335W)
Procedure: as §1, §2, §3

CfEcR-DEF mutant W238L = CfEcR-DEF mutant W238L (Choristoneura fumiferana, UniProt O77255, W521L); details: for Emax: NIH3T3, 40 h, read-out: Rel Max FI
Procedure: as §1, §2, §3

CfEcR-DEF mutant W238M = CfEcR-DEF mutant W238M (Choristoneura fumiferana, UniProt O77255, W521M); details: for Emax: NIH3T3, 40 h, read-out: Rel MaxFI
Procedure: as §1, §2, §3

Chain of CfEcR-DEF mutant F48K (O77255 entry or part of it F331K): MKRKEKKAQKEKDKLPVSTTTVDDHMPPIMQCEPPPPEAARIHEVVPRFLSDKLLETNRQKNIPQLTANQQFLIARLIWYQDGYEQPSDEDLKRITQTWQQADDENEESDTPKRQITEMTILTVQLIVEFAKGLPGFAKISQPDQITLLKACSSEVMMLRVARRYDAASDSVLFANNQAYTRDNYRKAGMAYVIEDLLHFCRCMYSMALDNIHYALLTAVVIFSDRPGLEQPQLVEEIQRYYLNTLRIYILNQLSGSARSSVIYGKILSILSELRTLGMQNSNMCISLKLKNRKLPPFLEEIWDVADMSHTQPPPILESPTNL
Chain of CfEcR-DEF mutant F48K (P28702 299-449, further chain): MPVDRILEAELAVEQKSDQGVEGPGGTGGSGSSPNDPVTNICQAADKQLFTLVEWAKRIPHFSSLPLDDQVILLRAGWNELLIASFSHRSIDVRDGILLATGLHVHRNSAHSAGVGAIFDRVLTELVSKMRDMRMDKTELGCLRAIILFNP
Chain of CfEcR-DEF mutant L223K (P28702 298-449): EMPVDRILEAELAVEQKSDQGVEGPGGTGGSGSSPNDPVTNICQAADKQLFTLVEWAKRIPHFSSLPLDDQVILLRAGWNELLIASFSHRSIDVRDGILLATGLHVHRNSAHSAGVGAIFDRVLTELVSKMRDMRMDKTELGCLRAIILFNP
Chain of CfEcR-DEF mutant L223K (O77255 entry or part of it L506K): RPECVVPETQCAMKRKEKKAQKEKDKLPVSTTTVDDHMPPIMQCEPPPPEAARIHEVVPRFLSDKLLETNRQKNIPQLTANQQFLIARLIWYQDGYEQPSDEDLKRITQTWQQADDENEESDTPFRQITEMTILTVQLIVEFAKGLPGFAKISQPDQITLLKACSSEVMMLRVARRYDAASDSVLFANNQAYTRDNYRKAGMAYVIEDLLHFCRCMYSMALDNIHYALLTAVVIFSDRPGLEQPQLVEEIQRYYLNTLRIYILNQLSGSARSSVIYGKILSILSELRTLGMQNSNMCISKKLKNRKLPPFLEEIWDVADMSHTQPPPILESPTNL
Chain of CfEcR-DEF mutant M125I (O77255 entry or part of it M408I): as the sequence (O77255 entry or part of it L506K) above, with M202I, K300L counted along it
Chain of CfEcR-DEF mutant M125I (P28702 299-449, further chain): as the sequence (P28702 299-449, further chain) above
Chain of CfEcR-DEF mutant T52W (O77255 entry or part of it T335W): as the sequence (O77255 entry or part of it F331K) above, with K113F, T117W counted along it
Chain of CfEcR-DEF mutant T52W (P28702 299-449, further chain): as the sequence (P28702 299-449, further chain) above
Chain of CfEcR-DEF mutant F48R (O77255 entry or part of it F331R): as the sequence (O77255 entry or part of it L506K) above, with F125R, K300L counted along it
Chain of CfEcR-DEF mutant F48R (P28702 299-449, further chain): as the sequence (P28702 299-449, further chain) above
Chain of CfEcR-DEF mutant L132E (O77255 entry or part of it L415E): as the sequence (O77255 entry or part of it L506K) above, with L209E, K300L counted along it
Chain of CfEcR-DEF mutant L132E (P28702 298-449, further chain): as the sequence (P28702 298-449) above
Chain of CfEcR-DEF mutant T52G (O77255 entry or part of it T335G): as the sequence (O77255 entry or part of it L506K) above, with T129G, K300L counted along it
Chain of CfEcR-DEF mutant T52G (P28702 298-449, further chain): as the sequence (P28702 298-449) above
Chain of CfEcR-DEF mutant T52M (O77255 entry or part of it T335M): as the sequence (O77255 entry or part of it L506K) above, with T129M, K300L counted along it
Chain of CfEcR-DEF mutant T52M (P28702 298-449, further chain): as the sequence (P28702 298-449) above
Chain of CfEcR-DEF mutant M219K (P28702 299-449): as the sequence (P28702 299-449, further chain) above
Chain of CfEcR-DEF mutant M219K (O77255 entry or part of it M502K): as the sequence (O77255 entry or part of it L506K) above, with M296K, K300L counted along it

CCc1c(C(=O)NN(C(=O)c2cc(OC)c(C)c(OC)c2)C(C=C(C)C(C)(C)C)C(C)(C)C)ccc2c1OCCO2 (centres unmarked) [RG-115898, 3,5-dimethoxy-4-methyl-benzoic acid N-(1-tert-butyl-3,4,4-trimethyl-pent-2-enyl)-N′-(5-ethyl-2,3-dihydro-benzo[1,4]dioxine-6-carbonyl)-hydrazide]
EC50 (CfEcR-DEF mutant F48K): > 33 µM | Emax (CfEcR-DEF mutant F48K): 8% | EC50 (CfEcR-DEF mutant F48R): > 33 µM | Emax (CfEcR-DEF mutant F48R): 0% | EC50 (CfEcR-DEF mutant I51M): > 33 µM | Emax (CfEcR-DEF mutant I51M): 2% | EC50 (CfEcR-DEF mutant L132E): 2.15 µM | Emax (CfEcR-DEF mutant L132E): 34% | Emax (CfEcR-DEF mutant L223K): 18% | EC50 (CfEcR-DEF mutant L223R): > 33 µM | Emax (CfEcR-DEF mutant L223R): 1% | EC50 (CfEcR-DEF mutant L223Y): 0.33 µM | Emax (CfEcR-DEF mutant L223Y): 20% | EC50 (CfEcR-DEF mutant L234R): > 33 µM | Emax (CfEcR-DEF mutant L234R): 58% | EC50 (CfEcR-DEF mutant L234W): > 33 µM | Emax (CfEcR-DEF mutant L234W): 2% | EC50 (CfEcR-DEF mutant M125G): 0.08 µM | EC50 (CfEcR-DEF mutant M125I): > 33 µM | Emax (CfEcR-DEF mutant M125I): 0% | EC50 (CfEcR-DEF mutant M125N): 0.94 µM | EC50 (CfEcR-DEF mutant M125S): 0.33 µM | EC50 (CfEcR-DEF mutant M125V): > 33 µM | Emax (CfEcR-DEF mutant M125V): 1% | EC50 (CfEcR-DEF mutant M219A): 1 µM | Emax (CfEcR-DEF mutant M219A): 5% | EC50 (CfEcR-DEF mutant M219K): > 33 µM | Emax (CfEcR-DEF mutant M219K): 0% | EC50 (CfEcR-DEF mutant M219W): > 33 µM | Emax (CfEcR-DEF mutant M219W): 0% | EC50 (CfEcR-DEF mutant M219Y): > 33 µM | Emax (CfEcR-DEF mutant M219Y): 1% | EC50 (CfEcR-DEF mutant T52G): > 33 µM | Emax (CfEcR-DEF mutant T52G): 1% | EC50 (CfEcR-DEF mutant T52M): > 33 µM | Emax (CfEcR-DEF mutant T52M): 1% | EC50 (CfEcR-DEF mutant T52Q): 20 µM | Emax (CfEcR-DEF mutant T52Q): 8% | EC50 (CfEcR-DEF mutant T52R): > 33 µM | Emax (CfEcR-DEF mutant T52R): 0% | EC50 (CfEcR-DEF mutant T52W): 0.18 µM | Emax (CfEcR-DEF mutant T52W; NIH3T3, 40 h, read-out: Rel Max FI): 424% | EC50 (CfEcR-DEF mutant W238L): > 33 µM | Emax (CfEcR-DEF mutant W238L): 0% | EC50 (CfEcR-DEF mutant W238M): > 33 µM | Emax (CfEcR-DEF mutant W238M): 3%

CCCCC(N(NC(=O)c1ccc(CC)cc1)C(=O)c1cc(C)cc(C)c1)C(C)(C)C (centres unmarked) [RG-115840, 3,5-dimethyl-benzoic acid N-(1-tert-butyl-pentyl)-N′-(4-ethyl-benzoyl)-hydrazide]
EC50 (CfEcR-DEF mutant F48K): 3.76 µM | Emax (CfEcR-DEF mutant F48K): 18% | EC50 (CfEcR-DEF mutant F48R): 3.58 µM | Emax (CfEcR-DEF mutant F48R): 265% | EC50 (CfEcR-DEF mutant I51M): 4.13 µM | Emax (CfEcR-DEF mutant I51M): 27% | EC50 (CfEcR-DEF mutant L132E): 1.67 µM | Emax (CfEcR-DEF mutant L132E): 156% | EC50 (CfEcR-DEF mutant L223K): 1 µM | Emax (CfEcR-DEF mutant L223K): 93% | EC50 (CfEcR-DEF mutant L223R): 2 µM | Emax (CfEcR-DEF mutant L223R): 25% | EC50 (CfEcR-DEF mutant L223Y): 0.58 µM | Emax (CfEcR-DEF mutant L223Y): 142% | EC50 (CfEcR-DEF mutant L234R): 20 µM | Emax (CfEcR-DEF mutant L234R): 224% | EC50 (CfEcR-DEF mutant L234W): > 33 µM | Emax (CfEcR-DEF mutant L234W): 6% | EC50 (CfEcR-DEF mutant M125G): 2.97 µM | EC50 (CfEcR-DEF mutant M125I): 3.02 µM | Emax (CfEcR-DEF mutant M125I): 45% | EC50 (CfEcR-DEF mutant M125N): 3.3 µM | EC50 (CfEcR-DEF mutant M125S): 1.4 µM | EC50 (CfEcR-DEF mutant M125V): 3.79 µM | Emax (CfEcR-DEF mutant M125V): 47% | EC50 (CfEcR-DEF mutant M219A): 2.87 µM | Emax (CfEcR-DEF mutant M219A): 60% | EC50 (CfEcR-DEF mutant M219K): > 33 µM | Emax (CfEcR-DEF mutant M219K): 1% | EC50 (CfEcR-DEF mutant M219W): 2.33 µM | Emax (CfEcR-DEF mutant M219W): 39% | EC50 (CfEcR-DEF mutant M219Y): 1 µM | Emax (CfEcR-DEF mutant M219Y): 68% | EC50 (CfEcR-DEF mutant T52G): 3.61 µM | Emax (CfEcR-DEF mutant T52G): 23% | EC50 (CfEcR-DEF mutant T52M): 5 µM | Emax (CfEcR-DEF mutant T52M): 15% | EC50 (CfEcR-DEF mutant T52Q): 2 µM | Emax (CfEcR-DEF mutant T52Q): 34% | EC50 (CfEcR-DEF mutant T52R): > 33 µM | Emax (CfEcR-DEF mutant T52R): 2% | EC50 (CfEcR-DEF mutant T52W): 4.07 µM | EC50 (CfEcR-DEF mutant W238L): 2 µM | Emax (CfEcR-DEF mutant W238L): 41% | EC50 (CfEcR-DEF mutant W238M): 2 µM | Emax (CfEcR-DEF mutant W238M): 41%
